# Source: ChEMBL document CHEMBL4819019, “Design, synthesis, antibacterial activity and toxicity of novel quaternary ammonium compounds based on pyridoxine and fatty acids” (Eur J Med Chem, 2021)
# Tests used:
# [1] = test system: Pseudomonas aeruginosa; assay: Antibacterial activity against Pseudomonas aeruginosa ATCC 27853 measured after 24 hrs by broth microdilution method; assay type: functional
# [2] = Lipophilicity, logP of the compound; assay type: physicochemical; conditions: octanol/water
# [3] = test system: Bacillus subtilis; assay: Antibacterial activity against Bacillus subtilis 168 measured after 24 hrs by broth microdilution method; assay type: functional
# [4] = test system: Micrococcus luteus; assay: Antibacterial activity against Micrococcus luteus clinical isolate measured after 24 hrs by broth microdilution method; assay type: functional
# [5] = test system: Staphylococcus aureus; assay: Antibacterial activity against Staphylococcus aureus ATCC 29213 measured after 24 hrs by broth microdilution method; assay type: functional
# [6] = test system: Escherichia coli; assay: Antibacterial activity against Escherichia coli MG 1655 measured after 24 hrs by broth microdilution method; assay type: functional
# [7] = Genotoxicity in Salmonella typhimurium TA1535 assessed as number of revertant by Ames spot test relative to solvent control; assay type: toxicity; conditions: salmonella enterica subsp. enterica serovar typhimurium
# [8] = Genotoxicity in Salmonella typhimurium TA100 assessed as number of revertant by Ames spot test relative to solvent control; assay type: toxicity; conditions: salmonella enterica subsp. enterica serovar typhimurium
# [9] = Genotoxicity in Salmonella typhimurium TA1537 assessed as number of revertant by Ames spot test relative to solvent control; assay type: toxicity; conditions: salmonella enterica subsp. enterica serovar typhimurium
# [10] = Genotoxicity in Salmonella typhimurium TA98 assessed as number of revertant by Ames spot test relative to solvent control; assay type: toxicity; conditions: salmonella enterica subsp. enterica serovar typhimurium
Compound,MIC [1] [µg/mL],logP [2],MIC [3] [µg/mL],MIC [4] [µg/mL],MIC [5] [µg/mL],MIC [6] [µg/mL],Ratio [7],Ratio [8],Ratio [9],Ratio [10]
CCCCCCCCCCCCCCCCCC(=O)NCC[N+](C)(C)Cc1cnc(C)c2c1COC(C)(CCC)O2.[Cl-] (centres undefined),> 64,4.02,> 64,> 64,> 64,> 64,,,,
CCCCCCCCCCCCCC(=O)OCC[N+](C)(C)Cc1nc(C)c2c(c1CO)COC(CCC)O2.[Cl-] (centres undefined),> 64,2.29,2,2,2,64,,,,
COS(C)(=O)=O [METHANESULFONIC ACID METHYL ESTER],,,,,,,30,2.7,,
CCCCCCCCCCCCCC(=O)OCCC[N+](C)(C)Cc1nc(C)c2c(c1CO)COC(CCC)O2.[Cl-] (centres undefined),> 64,2.35,2,2,2,64,,,,
CCCCCCCCCCCCCCCCCC(=O)NCCC[N+](C)(C)Cc1cnc(C)c2c1COC(C)(CCC)O2.[Cl-] (centres undefined),> 64,4.08,> 64,> 64,> 64,> 64,,,,
CCCCCCCCCCCCCC(=O)NCCC[N+](C)(C)Cc1nc(C)c2c(c1CO)COC(C)(C)O2.[Cl-],> 64,0.79,2,1,2,16,,,,
CCCCCCCCCCCC(=O)NCC[N+](C)(C)Cc1cnc(C)c2c1COC(C)(C)O2.[Cl-],32,0.52,8,4,1,32,,,,
CCCCCCCCCCCCCC(=O)NCCC[N+](C)(C)Cc1cnc(C)c2c1COC(C)(CCC)O2.[Cl-] (centres undefined),> 64,2.3,2,2,2,2,,,,
CCCCCCCCCCCC(=O)NCCC[N+](C)(C)Cc1cnc(C)c2c1COC(C)(CCC)O2.[Cl-] (centres undefined),32,1.41,4,4,1,8,,,,
CCCCCC(=O)NCCC[N+](C)(C)Cc1cnc(C)c2c1COC(C)(C)O2.[Cl-],> 64,-2.09,> 64,> 64,> 64,> 64,,,,
CCCCCCCCCCCCCC(=O)NCCC[N+](C)(C)Cc1cnc(C)c2c1COC(CCCCCCCC)O2.[Cl-] (centres undefined),> 64,4.53,> 64,> 64,> 64,> 64,,,,
CCCCCCCCCCCC(=O)OCC[N+](C)(C)Cc1cnc(C)c2c1COC(CCC)O2.[Cl-] (centres undefined),32,2.08,2,2,1,4,,,,
CCCCCCCC[N+](C)(C)Cc1nc(C)c2c(c1CO)COC(C)(C)O2.[Cl-],> 64,-0.78,64,64,64,64,,,,
CCCCCCCCCCCCCC(=O)NCC[N+](C)(C)Cc1nc(C)c2c(c1CO)COC(CCC)O2.[Cl-] (centres undefined),> 64,1.56,2,4,2,64,,,,
CCCCCCCCCC(C)C1OCc2c(C[N+](C)(C)CCCNC(=O)CCCCC)cnc(C)c2O1.[Cl-] (centres undefined),> 64,2.34,> 64,> 64,> 64,> 64,,,,
CCCCCC(=O)NCCC[N+](C)(C)Cc1cnc(C)c2c1COC(CCC)O2.[Cl-] (centres undefined),> 64,-1.25,> 64,> 64,> 64,> 64,,,,
Nc1ccc([N+](=O)[O-])cc1N,,,,,,,,,3.7,4.2
CCCCCCCCCCCCCC(=O)NCCC[N+](C)(C)Cc1cnc(C)c2c1COC(CCCCC)O2.[Cl-] (centres undefined),> 64,3.19,1,2,2,> 64,,,,
CCCCCCCCCCCCCC(=O)OCCC[N+](C)(C)Cc1cnc(C)c2c1COC(CCCCCCCC)O2.[Cl-] (centres undefined),> 64,5.25,> 64,> 64,> 64,> 64,,,,
CCCCCCCCCCCCCC(=O)NCCC[N+](C)(C)Cc1nc(C)c2c(c1CO)COC(CCC)O2.[Cl-] (centres undefined),> 64,1.62,1,1,2,64,,,,

# Second part, led by results:
MIC [1] [µg/mL],logP [2],MIC [3] [µg/mL],MIC [4] [µg/mL],MIC [5] [µg/mL],MIC [6] [µg/mL],Compound,Ratio [7],Ratio [8],Ratio [9],Ratio [10]
8,3.19,8,2,4,> 64,CCCCCCCCCCCCCCCCCC(=O)NCC[N+](C)(C)Cc1cnc(C)c2c1COC(C)(C)O2.[Cl-],,,,
32,1.31,1,2,2,8,CCCCCCCCCCCC(=O)OCCC[N+](C)(C)Cc1cnc(C)c2c1COC(C)(C)O2.[Cl-],,,,
16,2.2,2,2,2,16,CCCCCCCCCCCCCC(=O)OCCC[N+](C)(C)Cc1cnc(C)c2c1COC(C)(C)O2.[Cl-],,,,
4,3.03,2,1,2,> 64,CCCCCCCCCCCCCC(=O)OCCC[N+](C)(C)Cc1cnc(C)c2c1COC(CCC)O2.[Cl-] (centres undefined),,,,
2,2.93,4,1,1,32,CCCCCCCCCCCCCCCC(=O)NCC[N+](C)(C)Cc1cnc(C)c2c1COC(C)(C)O2.[Cl-],,,,
8,2.36,2,2,4,> 64,CCCCCCCCCCCCCCCC(=O)NCCC[N+](C)(C)Cc1cnc(C)c2c1COC(C)(C)O2.[Cl-],,,,
> 64,3.92,4,8,8,> 64,CCCCCCCCCCCCCC(=O)OCCC[N+](C)(C)Cc1cnc(C)c2c1COC(CCCCC)O2.[Cl-] (centres undefined),,,,
32,3.09,8,2,16,> 64,CCCCCCCCCCCCCCCC(=O)OCCC[N+](C)(C)Cc1cnc(C)c2c1COC(C)(C)O2.[Cl-],,,,
> 64,3.19,4,2,2,2,CCCCCCCCCCCCCCCC(=O)NCCC[N+](C)(C)Cc1cnc(C)c2c1COC(C)(CCC)O2.[Cl-] (centres undefined),,,,
4,3.03,1,0.5,0.5,> 64,CCCCCCCCCCCCCCCC(=O)OCC[N+](C)(C)Cc1cnc(C)c2c1COC(C)(C)O2.[Cl-],,,,
64,0.58,8,16,8,64,CCCCCCCCCCCC(=O)NCCC[N+](C)(C)Cc1cnc(C)c2c1COC(C)(C)O2.[Cl-],,,,
32,3.92,32,8,32,> 64,CCCCCCCCCCCCCCCC(=O)OCCC[N+](C)(C)Cc1cnc(C)c2c1COC(CCC)O2.[Cl-] (centres undefined),,,,
> 64,3.13,16,16,8,> 64,CCCCCCCCCCCCCCCC(=O)NCC[N+](C)(C)Cc1cnc(C)c2c1COC(C)(CCC)O2.[Cl-] (centres undefined),,,,
> 64,4.35,> 64,16,4,> 64,CCCCCCCCCCCCCCCCCC[N+](C)(C)Cc1cnc(C)c2c1COC(C)(C)O2.[Cl-],,,,
> 64,1.52,0.5,2,1,64,CCCCCCCCCCCCCC(=O)OCCC[N+](C)(C)Cc1nc(C)c2c(c1CO)COC(C)(C)O2.[Cl-],,,,
64,1.25,4,4,4,16,CCCCCCCCCCCC(=O)OCC[N+](C)(C)Cc1cnc(C)c2c1COC(C)(C)O2.[Cl-],,,,
8,3.86,4,1,2,> 64,CCCCCCCCCCCCCCCC(=O)OCC[N+](C)(C)Cc1cnc(C)c2c1COC(CCC)O2.[Cl-] (centres undefined),,,,
